Measurements taken from paper PMC5814837 (Pest Management Science, 2017).

Tests used:
[1] = molecular target: mitochondrial succinate dehydrogenase (SDH) (Zymoseptoria tritici, UniProt F9X9V6+F9XH52+O42772, N33T/N34T/V106L); assay: biochemical; settings: IC50
[2] = molecular target: mitochondrial succinate dehydrogenase (SDH) (Zymoseptoria tritici, UniProt F9X9V6+F9XH52+O42772, N33T/N34T); assay: biochemical; settings: IC50

Row | SMILES | IC50 [1] | IC50 [2]
1 | Cn1cc(C(=O)Nc2ccc(F)cc2-c2ccc(Cl)c(Cl)c2)c(C(F)F)n1 [Bixafen, bixafen] | 0.044 ± 0.011 µM | 31 ± 17 nM
2 | Cc1cc(OC(C)C)ccc1C(=O)C(C)(C)NC(=O)c1sccc1C [Isofetamid, N‐[1,1‐dimethyl‐2‐(4‐isopropoxy‐o‐tolyl)‐2‐oxoethyl]‐3‐methylthiophene‐2‐carboxamide] | > 32 µM | 46 ± 9 nM
3 | O=C(NCCc1ncc(C(F)(F)F)cc1Cl)c1ccccc1C(F)(F)F [Fluopyram, fluopyram] | 12.4 ± 1.32 µM | 134 ± 67 nM
